Measurements from the NIST ThermoML archive (doi:10.1016/j.fluid.2008.06.022).

Conditions: Liquid

CCCOCC(C)O (centres undefined) [1-propoxy-2-propanol]
Conditions	vapor or sublimation pressure [kPa]
298.15 K	0.341
303.15 K	0.481
308.15 K	0.672
313.15 K	0.937
318.15 K	1.271
323.15 K	1.707
328.15 K	2.256
333.15 K	2.967
338.15 K	3.839
343.15 K	4.951
348.15 K	6.29
353.15 K	7.963
358.15 K	9.95
363.15 K	12.38
368.15 K	15.27
373.15 K	18.7
378.15 K	22.65
383.15 K	27.42
388.15 K	32.8
393.15 K	39.18
398.15 K	46.38
403.15 K	54.75
408.15 K	64.1
413.15 K	74.98
